Measured values: US20230015532A1, “PHARMACEUTICAL COMPOSITION, FOR PREVENTING OR TREATING FIBROSIS, COMPRISING PHEOPHORBIDE COMPOUND AS ACTIVE INGREDIENT” (PAEAN BIOTECHNOLOGY INC., priority 2019, published 2023)

Legend:
[1] = system: collagen 1A, fibronectin and alpha-smooth muscle actin proteins in CCD8-Lu cells; experiment: Anti-fibrotic activity by Western blotting (Experimental Example 3.1); assay type: cell-based, human; details: 0.06-5 μM, 6 hours after TGF-β, 18 hours
Procedure: A cell-based assay experiment was performed using Western blotting assay to analyze the anti-fibrotic activity of pheophorbide a.
CCD8-Lu cells, which are human lung-derived fibroblasts, were cultured in the DMEM medium containing 10% FBS. Then, about 2×10^5 cells were inoculated into a 6 well plate and cultured for 24 hours, and subjected to the deficient condition in the DMEM medium from which FBS was removed for about 24 hours.
24 hours later, following the treatment with TGF-β at a concentration of 5 ng/ml, fibrosis of cells was induced for 6 hours. After 6 hours, the cells were treated with pheophorbide a obtained in Preparation Example 2 and further cultured for 18 hours (FIG. 2). Then, the negative control group was treated with nothing, the positive control group was treated with TGF-β alone at a concentration of 5 ng/ml, and the experimental groups were treated with TGF-β at a concentration of […] and 6 hours later, with pheophorbide a at each concentration of 0.06 μM, 0.12 μM, 0.25 μM, 0.5 μM, 2.5 μM and 5 μM. […]
The separated supernatant was obtained and transferred to a new microtube and then the protein was quantified using a bicinchoninic acid assay (BCA assay) protein quantitative kit. […]

[2] = system: pulmonary fibrosis induced by bleomycin (BLM) in C57BL/6NCr10ri mice; experiment: Bleomycin-induced pulmonary fibrosis model mice; assay type: in vivo; details: oral once daily Day 1 to Day 21, 1.25-80 mg/kg
Procedure: Mice were weighed and divided into total seven groups, and then administered intratracheally with sterile physiological saline in the vehicle control group and with BLM in the other groups than the vehicle control group on Day 1 to induce pulmonary fibrosis. Then, from Day 1 to Day 21, DMSO (sigma D2650-5X) devoid of the effective substance was administered to the vehicle control group and the negative control group (fibrosis control).
In addition, T1 to T4 groups and the positive control group were orally administered with the effective substance (pheophorbide a) and nintedanib, respectively, once daily. […]
Following the administration, the death and the moribund status were observed once daily, and general symptoms such as appearance and behavioral changes were observed twice daily. […] Body weight was measured 7 times in total (Day 1, 2, 4, 8, 11, 15 and 18) during the administration and once on the autopsy day.
On Day 22, the animals were euthanized by isoflurane inhalation and subjected to autopsy. […] The organ weight ratio of the extracted lungs was calculated by using the following calculation formula. […]
The results of the experiments were expressed by the mean and the standard deviation and statistically analyzed using Pristima System or Statistical Analysis System (SAS/STAT).

[3] = system: α-SMA, CTGF and NOX4 genes in CCD8-Lu cells; experiment: Comparison of anti-fibrotic activity by quantitative real-time PCR (Experimental Example 4.1); assay type: cell-based, human; details: 2.5 μM and 5 μM; 6 hours after 5 ng/ml TGF-β, 18 hours; qRT-PCR
Procedure: A cell-based analysis experiment was performed to analyze the anti-fibrotic activity of pheophorbide a obtained in Preparation Example 2 in comparison with nintedanib and pirfenidone, which were previously approved as a therapeutic agent for pulmonary fibrosis, using quantitative real-time polymerase chain reaction.
CCD8-Lu cells, which are human lung-derived fibroblasts, were cultured in the DMEM medium containing 10% FBS. About 2×10^5 cells were then inoculated into a 6 well plate, cultured for 24 hours, and subjected to the deficient condition in the DMEM medium from which FBS was removed for about 24 hours.
24 hours later, following the treatment with TGF-β at a concentration of 5 ng/ml, fibrosis of cells was induced for 6 hours. After 6 hours, the cells were treated with pheophorbide a obtained in Preparation Example 2 or the therapeutic agent for pulmonary fibrosis and further cultured for 18 hours. […]
The supernatant was separated, added with the same volume of isopropyl alcohol and centrifuged at 12,000×g for 10 minutes. […] After drying, about 50 μl of RNAase-free purified distilled water was added thereto, and the quantity and purity of the obtained RNA was measured using a spectrophotometer. […]
After the cDNA synthesis reaction was completed, the reverse transcriptase was inactivated by heating at 72° C. for 5 minutes, and then RNase H was added to remove the […] RNA and obtain the final cDNA. Whether the expression of the alpha-smooth muscle actin gene, which is a characteristic gene of myofibroblasts, the CCN2 (or CTGF) gene, which is a characteristic gene for fibrosis, fibronectin, which is a characteristics gene for fibrosis, and the NOX4 (NADPH oxidase 4) gene known as a major regulator of the amount of reactive oxygen species was changed was observed through quantitative real-time polymerase chain reaction. The GAPDH gene was quantified together to correct differences in expression.

Substance: pheophorbide a
- expression of collagen 1A, fibronectin, and smooth muscle actin proteins induced by TGF-β [1]: inhibited
- anti-fibrotic effect as compared with the negative control group ([2]; BLM 1.8 mg/kg intratracheal, mice): anti-fibrotic effect
- anti-fibrotic effect as compared with the positive control group (nintedanib) ([2]; nintedanib 60 mg/kg, BLM mice): significant anti-fibrotic effect
- expression of the α-SMA, CTGF and NOX4 genes induced by TGF-β [3]: remarkably inhibited
